Patent US20170183637A1, “SPLIT RECOMBINANT LUCIFERASE, AND ANALYSIS METHOD USING THEREOF” (OLYMPUS CORPORATION, priority 2014, published 2017)

Legend:
[1] = system: 5HT2A receptor-expressing HEK293 cells; test: High-speed luminescence imaging of changes in calcium ion concentrations upon 5HT stimulation (Experiment 11); assay type: cell-based, human; conditions: 5HT 10 μM; cpSfRE55-CaM in 5HT2A receptor-expressing HEK293 cells; images every 500 milliseconds; FIG. 15
Experimental: The cells cultured in Procedure 1 were seeded onto 35 mm-diameter glass bottom dishes at a density of 2×10^5 cells/dish and cultured overnight in a 5% CO2 incubator. The human 5HT2A receptor expression plasmid pcDNA/5HT2AR and luminescent calcium indicator expression plasmid were transferred into the cells by electroporation using NEPA21 and the cells were cultured overnight in a 5% CO2 incubator.
2 mM luciferin (Promega) was added to the culture medium of the culture obtained in Procedure 2 and the culture was allowed to stand for 1 h. The culture dish was loaded onto a luminescence microscope (LV-200, Olympus) and time-lapse image capturing was performed to acquire luminescence images at an interval of 500 milliseconds. Luminescence observation conditions were as follows: magnification of objective lens:=40×, exposure time=200 milliseconds, and binning=2×2. Using an EM-CCD camera (iXon, Andor), luminescence images were taken and transferred to a personal computer. […]
Regions of interest (ROIs) were designated for each luminescence image captured in Procedure 3 and for each luminescence image captured in Procedure 4. […] The luminescence images were analyzed using MetaMorph software (Universal imaging). […]

HEK293 cells [2] = test: Luminescence measurement of changes in intracellular calcium level in HEK293 cells upon ATP stimulation (Experiment 9); assay type: cell-based; conditions: ATP 200 μM, luciferin 2 mM, luminometer, FIG. 13
Experimental: HEK293 cells (1×10^6 cells) were collected by centrifugation and luminescent calcium indicator expression vectors were transferred into the cells by electroporation using NEPA21. The transfected HEK293 cells were seeded into a 24-well multiplate at a concentration of 1×10^5 cells/well and cultured overnight in a 5% CO2 incubator.
After rinsing the cells with CO2-independent culture medium twice, 200 μL of CO2-independent culture medium containing D-luciferin (final conc.=2 mM) was added and the plate was allowed to stand for 15 min.
The plate was placed in a luminometer (Luminescencer-JNR II, ATTO), and luminescence intensity for pre- and post-ATP (200 μM) stimulation was measured over time.
Luminescent calcium indicators were transferred into HEK293 cells and the cells were cultured overnight. The cells were rinsed with CO2-independent culture medium, luciferin was added to the CO2-independent culture medium to a final luciferin concentration of 2 mM, and the culture was allowed to stand for 15 min, followed by measurement of luminescence intensity using a luminometer.

HEK293 cells [3] = test: Luminescence-based calcium imaging in HEK293 cells upon ATP stimulation (Experiment 10); assay type: cell-based; conditions: FIG. 14
Experimental: HEK293 cells were acquired from ATCC and cultured in a 5% CO2 incubator in Earle's MEM culture medium (GIBCO) supplemented with 10% Fetal Bovine Serum and 1× Nonessential amino acids.
The cultured HEK293 cells were seeded onto 35 mm-diameter glass bottom dishes at a density of 2×10^5 cells/dish and cultured overnight in a 5% CO2 incubator. Luminescent calcium indicator expression plasmids were transferred into the HEK293 cells by electroporation using NEPA21 and cultured overnight in a 5% CO2 incubator.
2 mM luciferin (Wako Pure Chemical industries, Ltd.) was added to the culture medium and the culture was allowed to stand for 1 h. The culture dish was then loaded onto a luminescence microscope (LV-200, Olympus) and time-lapse image capturing was performed to acquire luminescence images at an interval of 10 sec. Luminescence observation conditions were as follows: magnification of objective lens=40×, exposure time=5 sec, and binning=1×1. An EM-CCD camera (iXon, Andor) was used as a CCD camera, and luminescence images were transferred to a personal computer configured as an image analyzer.
Changes in luminescence intensity of luminescent calcium indicators in response to changes in intracellular calcium ion concentration upon addition of ATP in culture medium were imaged. […] The luminescence images were transferred to the PC every 10 sec. […]

E. coli (JM109 (DE3)) = test: Luminescence activity of permutated and heterologous permutated firefly luciferase expressed in E. coli (Experiments 1 and 2); assay type: cell-based; conditions: Bright-Glo, 5 min room temperature, counts per 10 sec, FIG. 3
Experimental: The pRSET vector containing the permutated firefly luciferase gene was transformed into JM109(DE3) strain of E. coli and cultured overnight at 37° C. To 50 μL of culture was added 50 μL of Bright-Glo (Promega) and the culture was allowed to stand for 5 min at room temperature. Luminescence level for 10 sec was then measured using a luminometer (Luminescencer-JNR II, ATTO).
The prepared expression vector was transformed into E. coli (JM109 (DE3)) and cultured overnight in LB medium. To 50 μL of culture was added an equal volume of Bright-Glo and the culture was allowed to stand for 5 min at room temperature. Luminescence level of the reaction solution was reported as counts per 10 sec measured with the luminometer. As a control, permutated luciferase (GL4) derived from the North American firefly (Pholinus pyralis) luciferase was used. In FIG. 3, luminescence activities of GL4-derived and OKI-derived permutated luciferases are shown in terms of relative values with the activity of GL4 being 1. The vertical axis in FIG. 3 represents relative luminescence level.
The pRSET vector containing the heterologous permutated luciferase gene was transformed into JM109(DE3) strain of E. coli and cultured overnight at 37° C. in LB medium. […] Luminescence level for 10 sec was then measured using a luminometer (Luminescencer-JNR II, ATTO). […]

NCCc1c[nH]c2ccc(O)cc12 [5HT, Serotonin]
luminescence intensity response of indicator-expressing cells to 5HT stimulation [1]: cells that exhibited oscillation, as well as cells that exhibited a transient reduction in luminescence intensity

Nc1ncnc2c1ncn2[C@@H]1O[C@H](COP(=O)(O)OP(=O)(O)OP(=O)(O)O)[C@@H](O)[C@H]1O [ATP, adenosine tri phosphate]
change in luminescence intensity of luminescent calcium indicator upon ATP stimulation (HEK293 cells [2]): reductions in luminescence intensity
time course of luminescence intensity change caused by ATP stimulation (HEK293 cells [3]): transient
luminescence intensity of indicator-expressing cells after ATP stimulation (single-cell imaging) (HEK293 cells [3]; luciferin 2 mM, exposure 5 sec): decreased levels of luminescence intensity

B1: OKI359: C-terminal fragment, residues 359 to 562 of OKI-derived luciferase; names the permutated luciferase made with OKI-N (protein)
chain: KPGACGKVAPFFSAKIVDLDTSKTLGVNQRGELCLKGPMIMKGYVNNPEATNALIDKDGWLHSGDLAYYDKDGHFFIVDRLKSLIKYQGYQVPPAELESILLQHPFIFDAGVAGIPDADAGELPAAVVVLEEGKTMTEQEVMDYVAGQVTASKRLRGGVKFVDEVPKGLTGKIDSRKIREMLTMGKKSKL
luminescence activity (relative luminescence level, GL4 being 1) (E. coli (JM109 (DE3))): high levels of luminescence activity
